Earlier results in patent US8946160B2, “Nitric oxide amino acid esters for improving vascular circulation, and prophylaxis or treatment of a condition associated with impaired blood circulation” (Oral Delivery Technology Ltd., priority 2010, dated 2015).

## O=[N+]([O-])OCC(CO[N+](=O)[O-])O[N+](=O)[O-] [nitroglycerin]
  maximum shelf life of a product containing nitroglycerin: about six
